# Reference: patent publication US20240166630A1, “INDOLE DERIVATIVES AS SEROTONERGIC AGENTS USEFUL FOR THE TREATMENT OF DISORDERS RELATED THERETO” (Mindset Pharma Inc., priority 2021, published 2024)
# Where two headings read alike, the source gives them in different places.
# Legend:
# [1] = In vivo pharmacokinetics in male C57BL/6 mice; parameters: species or system mouse; conditions: male, C57BL/6, mouse, plasma, 9.92 mg/kg
# Experimental: Animals: Male C57BL/6 mice (25-30 g) from Charles River Labs were acclimatized for a minimum of 5 days prior to dosing. Body weights were recorded on the day of dosing.
# Food restriction: Animals dosed p.o. were deprived of food overnight and fed ˜2 h following dosing.
# Dosing: Formulations were administered intravenously (i.v.) via the tail vein or orally (p.o.) by gavage with disposable feeding needles.
# Sample collection: Serial blood samples was collected via tail snip. Terminal blood samples was collected under isoflurane anesthesia by cardiac puncture.
# Sample processing/storage: All blood samples were transferred into K2EDTA tubes on wet ice and centrifuged within 5 min (3200× g for 5 min at 4° C.) to obtain plasma. Plasma was stored at −80° C. until analysis.
# Instrumentation: AB Sciex QTRAP 4000 or 6500 MS/MS system equipped with an LC system with a binary pump, a solvent degasser, a thermostatted column compartment and a multiplate autosampler.
# 5. PK Analysis • i. Analysis software: Phoenix® WinNonlin® 8.2 (Pharsight, Certara, Mountainview, CA) • ii. Analysis methods: non-compartmental analysis, linear up/log down trapezoidal rule • iii. PK parameters: C0, t1/2, AUC0-tlast. AUC0-∞, CL, Vss, MRT, tmax(po), Cmax(po), F, as appropriate
# [2] = Liver microsomes stability with NADPH, human
# Experimental: The objective of this study was to estimate in vitro metabolic stability of representative compounds of the application in pooled human and male mouse liver microsomes. The concentrations of parent compounds in reaction systems were evaluated by LC-MS/MS for estimating the stability in pooled human and male mouse liver microsomes. The in vitro intrinsic clearances of test compounds were determined as well.
# A master solution in the “Incubation Plate” containing phosphate buffer, ultra-pure H2O, MgCl2 solution and liver microsomes was made according to Table 3. The mixture was pre-warmed at 37° C. water bath for 5 minutes.
# 40 μL of 10 mM NADPH solution was added to each well. The final concentration of NADPH was 1 mM. The negative control samples were prepared by replacing NADPH with 40 μL of ultra-pure H2O. Samples were prepared in duplicate. Negative controls were prepared in singlet.
# The reaction was started with the addition of 4 μL of 200 μM test compounds or control compounds to each master solution to get the final concentration of 2 μM. This study was performed in duplicate.
# Aliquots of 50 μL were taken from the reaction solution at 0, 15, 30, 45 and 60 minutes. The reaction solutions were stopped by the addition of 4 volumes of cold methanol with IS (100 nM alprazolam, 200 nM imipramine, 200 nM labetalol and 2 μM ketoprofen). Samples were centrifuged at 3,220 g for 40 minutes. Aliquot of 90 μL of the supernatant was mixed with 90 μL of ultra-pure H2O and then was used for LC-MS/MS analysis.
# LC/MS analysis was performed for all samples from this study using a Shimadzu liquid chromatograph separation system equipped with degasser DGU-20A5R; solvent delivery unit LC-30AD; system controller SIL-30AC; column oven CTO-30A; CTC Analytics HTC PAL System; Mass spectrometric analysis was performed using an Triple Quad™ 5500 instrument.
# All calculations were carried out using Microsoft Excel. Peak area ratios of test compound to internal standard (listed in the below table) were determined from extracted ion chromatograms.
# All calculations were carried out using Microsoft Excel. Peak areas were determined from extracted ion chromatograms. The slope value, k, was determined by linear regression of the natural logarithm of the remaining percentage of the parent drug vs. incubation time curve.
# The in vitro half-life (in vitro t1/2) was determined from the slope value:
# Conversion of the in vitro t1/2 (min) into the in vitro intrinsic clearance (in vitro CLint, in μL/min/mg proteins) was done using the following equation (mean of duplicate determinations): […]
smiles,measurement,setting,value
"[2H]C([2H])(c1c[nH]c2ccccc12)[C@H]1CCCN1C([2H])([2H])[2H] [I-B-1, (R)-3-((1-(methyl-d3)pyrrolidin-2-yl)methyl-d2)-1H-indole]",clearance,"[1]; iv, 9.92 mg/kg i.v., Mean ± SD",41.7 mL/min/kg
same,AUC(0-inf),"[1]; iv, 9.92 mg/kg i.v., Mean ± SD, read-out: AUC0-inf",4000 ± 389 ng·h/mL
same,AUC(0-t),"[1]; iv, 9.92 mg/kg i.v., Mean ± SD, read-out: AUC0-tlast",4000 ± 389 ng·h/mL
same,half-life,"[1]; iv, 9.92 mg/kg i.v., Mean ± SD, read-out: Apparent t1/2 (converted)",2.17 ± 0.127 h
same,C0,"[1]; iv, 9.92 mg/kg i.v., Mean ± SD, read-out: C0",3910 ± 868 ng/mL
same,MRT inf,"[1]; iv, 9.92 mg/kg i.v., Mean ± SD, read-out: MRT0-inf",2.43 ± 0.16 h
same,Vd,"[1]; iv, 9.92 mg/kg i.v., Mean ± SD, read-out: Vss",6.06 ± 0.464 L/kg
same,clearance,"[1]; iv, 9.92 mg/kg i.v., individual animals M10-M12",43 mL/min/kg
same,AUC(0-inf),"[1]; iv, 9.92 mg/kg i.v., individual animals M10-M12, read-out: AUC0-inf",3850 ng·h/mL
same,AUC(0-t),"[1]; iv, 9.92 mg/kg i.v., individual animals M10-M12, read-out: AUC0-tlast",3850 ng·h/mL
same,half-life,"[1]; iv, 9.92 mg/kg i.v., individual animals M10-M12, read-out: Apparent t1/2 (converted)",2.3 h
same,C0,"[1]; iv, 9.92 mg/kg i.v., individual animals M10-M12, read-out: C0",4910 ng/mL
same,MRT inf,"[1]; iv, 9.92 mg/kg i.v., individual animals M10-M12, read-out: MRT0-inf",2.26 h
same,Vd,"[1]; iv, 9.92 mg/kg i.v., individual animals M10-M12, read-out: Vss",5.83 L/kg
same,AUC(0-t),"[1]; po, 9.92 mg/kg p.o., Mean ± SD, read-out: AUC0-tlast",2170 ± 665 ng·h/mL
same,Cmax,"[1]; po, 9.92 mg/kg p.o., Mean ± SD, read-out: Cmax",389 ± 112 ng/mL
same,tmax,"[1]; po, 9.92 mg/kg p.o., Mean ± SD, read-out: tmax",0.25 h
same,AUC(0-inf),"[1]; po, 9.92 mg/kg p.o., individual animals M13-M15, read-out: AUC0-inf",1630 ng·h/mL
same,AUC(0-t),"[1]; po, 9.92 mg/kg p.o., individual animals M13-M15, read-out: AUC0-tlast",1460 ng·h/mL
same,Cmax,"[1]; po, 9.92 mg/kg p.o., individual animals M13-M15, read-out: Cmax",308 ng/mL
same,MRT inf,"[1]; po, 9.92 mg/kg p.o., individual animals M13-M15, read-out: MRT0-inf",8.91 h
same,half-life,"[1]; po, 9.92 mg/kg p.o., individual animals, estimate may not be accurate, read-out: Apparent t1/2 (converted)",9.66 h
same,AUC(0-inf),"[1]; po, 9.92 mg/kg p.o., mean (n = 2), read-out: AUC0-inf",2360 ng·h/mL
same,half-life,"[1]; po, 9.92 mg/kg p.o., mean (n = 2), read-out: Apparent t1/2 (converted)",9.56 h
same,MRT inf,"[1]; po, 9.92 mg/kg p.o., mean (n = 2), read-out: MRT0-inf",8.72 h
same,AUC(0-inf),"[1]; sc, 9.92 mg/kg s.c., Mean ± SD, read-out: AUC0-inf",2720 ± 249 ng·h/mL
same,AUC(0-t),"[1]; sc, 9.92 mg/kg s.c., Mean ± SD, read-out: AUC0-tlast",2720 ± 250 ng·h/mL
same,half-life,"[1]; sc, 9.92 mg/kg s.c., Mean ± SD, read-out: Apparent t1/2 (converted)",2.3 ± 0.232 h
same,Cmax,"[1]; sc, 9.92 mg/kg s.c., Mean ± SD, read-out: Cmax",1240 ± 387 ng/mL
same,MRT inf,"[1]; sc, 9.92 mg/kg s.c., Mean ± SD, read-out: MRT0-inf",2.6 ± 0.186 h
same,tmax,"[1]; sc, 9.92 mg/kg s.c., Mean ± SD, read-out: tmax",0.25 h
same,AUC(0-inf),"[1]; sc, 9.92 mg/kg s.c., individual animals M16-M18, read-out: AUC0-inf",2890 ng·h/mL
same,AUC(0-t),"[1]; sc, 9.92 mg/kg s.c., individual animals M16-M18, read-out: AUC0-tlast",2880 ng·h/mL
same,half-life,"[1]; sc, 9.92 mg/kg s.c., individual animals M16-M18, read-out: Apparent t1/2 (converted)",2.1 h
same,Cmax,"[1]; sc, 9.92 mg/kg s.c., individual animals M16-M18, read-out: Cmax",1680 ng/mL
same,MRT inf,"[1]; sc, 9.92 mg/kg s.c., individual animals M16-M18, read-out: MRT0-inf",2.8 h
same,tmax,"[1]; sc, 9.92 mg/kg s.c., individual animals M16-M18, read-out: tmax",0.25 h
same,Remaining Percentage (%) after 60 min Human,"[2]; human liver microsomes, with NADPH, 2 μM",82.74%
same,half-life at 2 μM,"[2]; human, microsomes",3.66 h
same,microsomal CLint at 2 μM,"[2]; human, microsomes",6.32 µL/min/mg
